Where two headings read alike, the source gives them in different places.
Legend:
[1] = Study 1: maximum tolerated dose of orally administered irinotecan with Compound A; type: in vivo, human; settings: dosed five days of week one during a three-week cycle
Procedure: Orally administered irinotecan was determined to have a maximum tolerated dose (MTD) of 20 mg/m^2 per day when dosed five days of week one during a three-week cycle.

[2] = Study 2: maximum tolerated dose of orally administered irinotecan with Compound A; type: in vivo, human; settings: dosed five days of week one and week two during a three-week cycle
Procedure: Orally administered irinotecan was determined to have a MTD of 10 mg/m^2 per day when dosed five days of week one and week two during a three-week cycle.

advanced malignancies = test: Phase 1 dose escalation study of oral irinotecan with 15 mg HM30181A: response; type: in vivo, human; settings: subjects with advanced malignancies; 15 mg HM30181A + oral irinotecan
Procedure: (§1) A phase 1 dose escalation study was performed to determine the MTD and DLT of orally administered irinotecan in combination with 15 mg (on day 1 of a 21-day cycle) of HM30181A. The study was performed on cohorts of 3-6 subjects with advanced malignancies. Subjects had Hb (hemoglobin count) 9 gm/dL, ANC (absolute neutrophil count) 1.5×10^9/L, and platelets 100×10^9/L, as well as adequate hepatic and renal function, and ECOG (Eastern Cooperative Oncology Group Performance Status) 0-1, and were not homozygous for UGT1A1*28.

[3] = human, in vivo
[4] = human, in vivo; remark: listed apart in the source
clinical [5] = settings: human, in vivo
clinical [6] = settings: human, in vivo; remark: listed apart in the source
clinical [7] = settings: human, in vivo, po, N = 3; for AUC(0-t): AUC24 h
Procedure: as §1

[8] = Simple Emax model of exposure (AUCinf, Cmax) versus dose
[9] = Study 2: pharmacokinetics of oral irinotecan and M1, 5-20 mg/m^2 per day for 10 days during a 21 day cycle; settings: for AUC / Cmax: human, in vivo, oral, mean
[10] = Study 1: pharmacokinetics of oral irinotecan and M1, 5-30 mg/m^2 per day for five days during a 21 day cycle
[11] = 15 mg HM30181A + 20-320 mg/m^2 oral irinotecan, day 1 of 21-day cycle, 30 patients
[12] = 15 mg HM30181A + 20-320 mg/m^2 oral irinotecan, 30 patients
[13] = 320 mg/m^2 dose level, with 15 mg HM30181A
[14] = dose 240 mg/m^2 oral irinotecan + 15 mg HM30181A
[15] = dose 280 mg/m^2 oral irinotecan + 15 mg HM30181A
[16] = dose 320 mg/m^2 oral irinotecan + 15 mg HM30181A

## CCc1c2c(nc3ccc(OC(=O)N4CCC(N5CCCCC5)CC4)cc13)-c1cc3c(c(=O)n1C2)COC(=O)[C@]3(O)CC [oral irinotecan, (4S)-4,11-Diethyl-4-hydroxy-3,14-dioxo-3,4,12,14-tetrahydro-1H-pyrano[3′,4′:6,7]indolizino[1,2-b]quinolin-9-yl 1,4′-bipiperidine-1′-carboxylate, reference compound]
[1]
  maximum tolerated dose (MTD): 20 mg/m^2 per day
[2]
  MTD: 10 mg/m^2 per day
Advanced malignancies
  response of stable disease: 9 out of 21
[3]; 5 mg/m2
  AUC24: 64.59 ng·h/mL
[3]; 10 mg/m2
  AUC24: 209.12 ng·h/mL
[3]; 15 mg/m2
  AUC24: 379.56 ng·h/mL
[3]; 25 mg/m2
  AUC24: 481.39 ng·h/mL
[3]; 30 mg/m2
  AUC24: 454.54 ng·h/mL
[4]
  Cmax compared with IV dosed irinotecan: below the range for 125 mg/m^2 of IV dosed irinotecan
  dose at which Cmax began to plateau: 200 mg/m^2
[4]; po, 280 mg/m2
  Tmax: 1 h
15 mg HM30181A + 20-320 mg/m^2 oral irinotecan
  Acute cholinergic diarrhea: not observed
[11]
  Treatment-related Grade 3-4 AEs, number of subjects: 12 subjects
  Treatment-related Grade 3-4 AEs, share of subjects: 40%
[12]
  SAEs nausea or vomiting, number of subjects: 4 subjects
  Treatment-related SAEs, number of patients: 6 patients
  vomiting (most common AEs), share of subjects: 20%
[13]
  DLTs, number of subjects: 2 subjects
  kind of DLTs: neutropenia and C. Difficile diarrhea
Clinical [5]; 5 mg/m2, AUC24
  AUC: 50.9 ng·h/mL
Clinical [5]; 5 mg/m2, Cmax
  Cmax: 6.52 ng/mL
Clinical [5]; 10 mg/m2, AUC24
  AUC: 110 ng·h/mL
Clinical [5]; 10 mg/m2, Cmax
  Cmax: 14 ng/mL
Clinical [5]; 15 mg/m2, AUC24
  AUC: 194 ng·h/mL
Clinical [5]; 15 mg/m2, Cmax
  Cmax: 20.6 ng/mL
Clinical [5]; 20 mg/m2, AUC24
  AUC: 277 ng·h/mL
Clinical [5]; 20 mg/m2, Cmax
  Cmax: 31.9 ng/mL
Clinical [5]; 25 mg/m2, AUC24
  AUC: 703 ng·h/mL
Clinical [5]; 25 mg/m2, Cmax
  Cmax: 63.6 ng/mL
Clinical [5]; 30 mg/m2, AUC24
  AUC: 736 ng·h/mL
Clinical [5]; 30 mg/m2, Cmax
  Cmax: 57.3 ng/mL
Clinical [6]; 240 mg/m2, Observed Mean (Cmax)
  Cmax: 798 ng/mL
Clinical [6]; 240 mg/m2, Observed Mean AUCinf
  AUC0-inf: 8150 ng·h/mL
Clinical [6]; 280 mg/m2, Observed Mean (Cmax)
  Cmax: 763 ng/mL
Clinical [6]; 280 mg/m2, Observed Mean AUCinf
  AUC0-inf: 6980 ng·h/mL
Clinical [6]; 320 mg/m2, Observed Mean (Cmax)
  Cmax: 1060 ng/mL
Clinical [6]; 320 mg/m2, Observed Mean AUCinf
  AUC0-inf: 14200 ng·h/mL
Clinical [6]; po, 240 mg/m2, Cmax
  Cmax: 668 ng/mL
Clinical [6]; po, 240 mg/m2, Tmax
  Tmax: 3 h
Clinical [6]; po, 280 mg/m2, AUC24
  AUC: 5020 ng·h/mL
Clinical [6]; po, 280 mg/m2, AUCinf
  AUC0-inf: 6010 ng·h/mL
Clinical [6]; po, 280 mg/m2, AUClast
  AUC(0-t): 5890 ng·h/mL
Clinical [6]; po, 280 mg/m2, Cmax
  Cmax: 736 ng/mL
Clinical [6]; po, 320 mg/m2, Tmax
  Tmax: 3 h
Clinical [7]; [14]
  AUC(0-t): 6960 ng·h/mL
  Cmax: 798 ng/mL
  Tmax: 3 h
Clinical [7]; [15]
  AUC(0-t): 6040 ng·h/mL
  Cmax: 763 ng/mL
  Tmax: 2 h
Clinical [7]; [16]
  AUC(0-t): 11300 ng·h/mL
  Cmax: 1060 ng/mL
  Tmax: 3 h
[8]; dose 200 mg/m^2
  Predicted AUCinf: 6992
  Predicted Cmax: 549
[8]; dose 240 mg/m^2
  Predicted AUCinf: 7679
  Predicted Cmax: 600
[8]; dose 280 mg/m^2
  Predicted AUCinf: 8253
  Predicted Cmax: 643
[8]; dose 320 mg/m^2
  Predicted AUCinf: 10189
  Predicted Cmax: 752
[9]; 5-20 mg/m^2 per day for 10 days during a 21 day cycle
  pharmacokinetics versus dose: increased proportionally with dose
[9]; 5 mg/m2, AUC24, Day 1, dose group 5 mg/m^2
  AUC: 72.1 ng·h/mL
[9]; 5 mg/m2, AUC24, Day 12, dose group 5 mg/m^2
  AUC: 95.1 ng·h/mL
[9]; 5 mg/m2, Cmax, Day 1, dose group 5 mg/m^2
  Cmax: 9.65 ng/mL
[9]; 10 mg/m2, AUC24, Day 1, dose group 10 mg/m^2
  AUC: 123 ng·h/mL
[9]; 10 mg/m2, AUC24, Day 12, dose group 10 mg/m^2
  AUC: 186 ng·h/mL
[9]; 10 mg/m2, Cmax, Day 1, dose group 10 mg/m^2
  Cmax: 15.5 ng/mL
[9]; 10 mg/m2, Cmax, Day 12, dose group 10 mg/m^2
  Cmax: 17.9 ng/mL
[9]; 15 mg/m2, AUC24, Day 1, dose group 15 mg/m^2
  AUC: 284 ng·h/mL
[9]; 15 mg/m2, AUC24, Day 12, dose group 15 mg/m^2
  AUC: 281 ng·h/mL
[9]; 15 mg/m2, Cmax, Day 1, dose group 15 mg/m^2
  Cmax: 26.9 ng/mL
[9]; 15 mg/m2, Cmax, Day 12, dose group 15 mg/m^2
  Cmax: 38.1 ng/mL
[9]; 20 mg/m2, AUC24, Day 1, dose group 20 mg/m^2
  AUC: 271 ng·h/mL
[9]; 20 mg/m2, AUC24, Day 12, dose group 20 mg/m^2
  AUC: 442 ng·h/mL
[9]; 20 mg/m2, Cmax, Day 1, dose group 20 mg/m^2
  Cmax: 28.8 ng/mL
[9]; 20 mg/m2, Cmax, Day 12, dose group 20 mg/m^2
  Cmax: 64.6 ng/mL
[10]; 5-30 mg/m^2 per day for five days during a 21 day cycle
  pharmacokinetics versus dose: increased proportionally with dose
[10]; human, in vivo, 20 mg/m2
  AUC: 412 ng·h/mL
